Drawing on patent publication US12544357B2, “Compositions and methods for the treatment of Plasmodium falciparum malaria” (priority 2021, dated 2026), this text covers IC50 for 26 compounds.

The test has as its system P. falciparum strain 3D7 parasites. As to the kind of experiment: parasite killing assay, P. falciparum 3D7, pLDH readout. As to conditions: ring stage, 48 hours, read-out: IC50. It counts as cell-based, Plasmodium falciparum. On the procedure:
P. falciparum strain 3D7 parasites were synchronized to the ring stage and incubated with a dilution series of compound or media control for 48 hours followed by quantification of parasitemia by Plasmodium lactate dehydrogenase assay (pLDH) assay.
P. falciparum strain 3D7 (Panels A and C) or 3D7 PfGARP KO (Panel B) parasites were synchronized to the ring stage and incubated with a dilution series of compound or media control for 48 hours followed by quantification of parasitemia by pLDH assay.
A limited structure-activity relationship (SAR) study was then conducted, evaluating 48 analog compounds having the same backbone (black in FIG. 3 inset and FIG. 4), but varying R groups (red) using P. falciparum strain 3D7 and 3D7 PfGARP KO parasites. For the SAR study, 3D7 or 3D7 PfGARP KO parasites were synchronized to the ring stage and incubated with a dilution series of compounds or media control for 48 hours followed by quantification of parasitemia by Plasmodium lactate dehydrogenase assay (pLDH) assay.^30 Each dilution was evaluated in quadruplicate. In all experiments, DMSO concentration was <0.1%.
The small molecule compounds shown in FIG. 4 were tested for their abilities to kill P. falciparum strain 3D7 parasites.
`CS(=O)(=O)N(CC(=O)NCCCN1CCCC1)c1ccc2c(c1)OCCO2` [ID #9146302]: the concentration for half-maximal inhibition (IC50) turned out to be 124 µM. Consider `Cc1ccccc1NC(=O)C(C)N(c1ccc2c(c1)OCCO2)S(C)(=O)=O` (centres unmarked) [ID #9072806], for which the half-inhibitory concentration (IC50) came out at 85.3 µM. In the case of `CC(C(=O)Nc1ccccc1)N(c1ccc2c(c1)OCCO2)S(C)(=O)=O` (centres unmarked) [ID #9083000], the IC50 amounted to 182 µM.

Regarding `CC(C(=O)N1CCN(C)CC1)N(c1ccc2c(c1)OCCO2)S(C)(=O)=O` (centres unmarked) [ID #9072406], the half-inhibitory concentration (IC50) was determined as 412 µM. For `CC(C(N)=O)N(c1ccc2c(c1)OCCO2)S(C)(=O)=O` (centres unmarked) [ID #9076661] the value was 132 µM. On to `Cc1cccc(C)c1NC(=O)C(C)N(c1ccc2c(c1)OCCO2)S(C)(=O)=O` (centres unmarked) [ID #9084931], for which the 50% inhibitory concentration (IC50) turned out to be 68.5 µM.

As to `CC(C(=O)N1CCOCC1)N(c1ccc2c(c1)OCCO2)S(C)(=O)=O` (centres unmarked) [ID #9075078], the IC50 is over 10000 µM.

Regarding `CC(C(=O)N(C)C)N(c1ccc2c(c1)OCCO2)S(C)(=O)=O` (centres unmarked) [ID #9082916], the IC50 turned out to be 509 µM. For `CC(C(=O)NC1CCCCCC1)N(c1ccc2c(c1)OCCO2)S(C)(=O)=O` (centres unmarked) [ID #9083885] the value was 57.2 µM.

Regarding `CC(C(=O)NC1CCCCC1)N(c1ccc2c(c1)OCCO2)S(C)(=O)=O` (centres unmarked) [ID #9083607], the concentration for half-maximal inhibition (IC50) worked out at 160 µM. For `CC(C(=O)NC1CCCC1)N(c1ccc2c(c1)OCCO2)S(C)(=O)=O` (centres unmarked) [ID #9074663] the value was 235 µM. `CNC(=O)CN(c1ccc2c(c1)OCCO2)S(C)(=O)=O` [ID #7626390]: the 50% inhibitory concentration (IC50) was over 10000 µM. Consider `COc1ccccc1NC(=O)C(C)N(c1ccc2c(c1)OCCO2)S(C)(=O)=O` (centres unmarked) [ID #9084682], for which the IC50 is over 10000 µM.

Turning to `CC(C(=O)N1CCCCC1)N(c1ccc2c(c1)OCCO2)S(C)(=O)=O` (centres unmarked) [ID #9082855], the half-maximal inhibitory concentration (IC50) came to 70.3 µM. Regarding `CS(=O)(=O)N(CC(=O)N1CCCC1)c1ccc2c(c1)OCCO2` [ID #7639273], the IC50 is over 10000 µM. `CC(C(=O)NC1CC2CCC1C2)N(c1ccc2c(c1)OCCO2)S(C)(=O)=O` (centres unmarked) [ID #9085023]: the IC50 is 46.8 µM. Regarding `CN(C)CCNC(=O)CN(c1ccc2c(c1)OCCO2)S(C)(=O)=O` [ID #9134158], the half-inhibitory concentration (IC50) was 134 µM.

Regarding `CS(=O)(=O)N(CC(=O)N1CCCCCC1)c1ccc2c(c1)OCCO2` [ID #7627706], the concentration for half-maximal inhibition (IC50) was 143 µM. Take `Cc1cccc(NC(=O)C(C)N(c2ccc3c(c2)OCCO3)S(C)(=O)=O)c1` (centres unmarked) [ID #9083036]: the IC50 was determined as 80.8 µM. For `COc1ccc(N(C(C)C(=O)Nc2ccc3c(c2)OCCO3)S(C)(=O)=O)cc1` (centres unmarked) [ID #7123771] the value was over 10000 µM; for `CCOc1ccccc1NC(=O)C(C)N(c1ccc2c(c1)OCCO2)S(C)(=O)=O` (centres unmarked) [ID #9077487], 49.6 µM; for `CC1CCN(C(=O)C(C)N(c2ccc3c(c2)OCCO3)S(C)(=O)=O)CC1` (centres unmarked) [ID #9084012], 80.2 µM. Turning to `CC(C(=O)N1CCCC1)N(c1ccc2c(c1)OCCO2)S(C)(=O)=O` (centres unmarked) [ID #9080993], the IC50 is over 10000 µM. Turning to `CS(=O)(=O)N(CC(=O)N1CCOCC1)c1ccc2c(c1)OCCO2` [ID #7641147], the half-inhibitory concentration (IC50) stood at 355 µM. Consider `COc1cccc(NC(=O)C(C)N(c2ccc3c(c2)OCCO3)S(C)(=O)=O)c1` (centres unmarked) [ID #9085101], for which the IC50 is over 10000 µM. For the compound `CC(C(=O)NC1CC1)N(c1ccc2c(c1)OCCO2)S(C)(=O)=O` (centres unmarked) [ID #9083268], the IC50 came to 387 µM.

One may read the IC50 as the concentration needed to halve the response being measured.
